Results as given in patent publication US11806350B2, “Prevention and/or treatment of CNS disorders” (ILDONG PHARMACEUTICAL CO., LTD., priority 2020, dated 2023).

Key:
[1] = molecular target: T1, Human recombinant adenosine A2A receptors (Homo sapiens, UniProt P29274); experiment: Human adenosine A2A receptor binding assay ([3H]CGS-21680); details: for Ki: membranes of HEK-293 cells, 50 nM [3H]CGS-21680, 90 minutes at 25° C., read-out: hA2A Ki; for activity as dual antagonists of both A2A and A1 receptors: summary in words of the A2A and A1 binding results of Table 2
T1 construct: expressed in transfected cells; host or cells: HEK-293 cells (membrane preparation)
T1 sequence (P29274 whole entry): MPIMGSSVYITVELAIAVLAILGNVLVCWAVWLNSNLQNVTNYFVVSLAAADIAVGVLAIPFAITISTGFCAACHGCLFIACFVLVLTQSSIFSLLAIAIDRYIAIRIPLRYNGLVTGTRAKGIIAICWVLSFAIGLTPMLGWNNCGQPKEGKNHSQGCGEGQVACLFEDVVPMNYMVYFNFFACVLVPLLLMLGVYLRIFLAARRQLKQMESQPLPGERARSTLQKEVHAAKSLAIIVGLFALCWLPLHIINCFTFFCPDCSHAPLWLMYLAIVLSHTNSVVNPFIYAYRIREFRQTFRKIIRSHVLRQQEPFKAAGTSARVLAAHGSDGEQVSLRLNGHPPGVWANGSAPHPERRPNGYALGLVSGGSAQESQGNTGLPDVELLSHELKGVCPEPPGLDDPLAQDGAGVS
Procedure: 2.2 Human Adenosine A2A Receptor Binding Assay
Test compound is weighed, dissolved in DMSO to make a stock solution of 10 mM, diluted with DMSO to prepare working solutions, then 100-fold diluted to the indicated concentrations. Human recombinant adenosine A2A receptors expressed in HEK-293 cells were used to prepare membranes in incubation buffer (50 mM Tris-HCl, pH 7.4, 10 mM MgCl2, 1 mM EDTA, 2 U/ml Adenosine Deaminase). Test compound or vehicle (2.2 μL) was added in 200 μL of membranes and incubated with 20 μL of 50 nM [^3H] […] Non-specific binding was estimated in the presence of 50 μM NECA (5′-N-ethylcarboxamidoadenosine). The incubation was stopped by vacuum filtration onto 0.3% PEI (polyethylenimine) presoaked GF/B filters using a harvester followed by four washes with ice-cold 50 mM Tris-HCl, pH 7.4, and the radioactivity on GF/B filtermats counted in a scintillation counter (PerkinElmer TOPCOUNT™) to determine [^3H] […] Final concentration of vehicle DMSO is 1%.
(§1) Data is fitted using the non-linear curve fitting routines in Meth-IQ software (ID Business Solutions Ltd., UK). IC50 is converted to Ki by Cheng-Prusoff equation: Ki=IC50/(1+[L]/KD) where [L] is concentration of radiolabeled ligand used in the assay.

[2] = molecular target: T2, Human recombinant adenosine A1 receptors (Homo sapiens, UniProt P30542); experiment: Human adenosine A1 receptor binding assay ([3H]DPCPX); details: membranes of CHO-K1 cells, 1 nM [3H]DPCPX, 90 minutes at 25° C.; read-out: hAl Ki
T2 construct: expressed in transfected cells; host or cells: CHO-K1 cells (membrane preparation)
T2 sequence (P30542 1-326): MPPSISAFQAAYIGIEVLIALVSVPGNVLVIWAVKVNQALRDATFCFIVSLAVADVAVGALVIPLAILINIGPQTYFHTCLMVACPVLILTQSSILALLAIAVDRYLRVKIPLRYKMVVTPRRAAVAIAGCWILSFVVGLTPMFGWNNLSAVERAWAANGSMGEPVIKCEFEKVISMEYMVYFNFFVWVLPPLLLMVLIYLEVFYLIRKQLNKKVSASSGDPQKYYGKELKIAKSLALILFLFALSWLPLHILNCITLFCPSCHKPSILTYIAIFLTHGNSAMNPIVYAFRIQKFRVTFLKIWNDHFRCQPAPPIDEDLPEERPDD
Procedure: 2.1 Human Adenosine A1 Receptor Binding Assay
Test compound is weighed, dissolved in DMSO to make a stock solution of 10 mM, diluted with DMSO to prepare working solutions, then 100-fold diluted to the indicated concentrations. Human recombinant adenosine A1 receptors expressed in CHO-K1 cells were used to prepare membranes in incubation buffer (20 mM HEPES (4-(2-hydroxyethyl)-1-piperazineethanesulfonic acid) pH 7.4, 10 mM MgCl2, 100 mM NaCl). Test compound or vehicle (2.2 μL) was added in 200 μL of membranes and incubated with 20 μL of 1 nM [^3H] DPCPX (8-cyclopentyl-1,3-dipropylxanthine) for 90 minutes at 25° C. Non-specific binding was estimated in the presence of 100 μM R(−)-PIA ((R)—N-(1-methyl-2-phenylethyl)adenosine). The incubation was stopped by vacuum filtration onto 0.3% PEI (polyethylenimine) presoaked GF/B filters using a harvester followed by four washes with ice-cold 50 mM Tris-HCl, pH 7.4, and the radioactivity on GF/B filtermats counted in a scintillation counter (PerkinElmer Topcount™) to determine [^3H] DPCPX specifically bound. Final concentration of vehicle DMSO is 1%.
as §1

Structure (SMILES)	Ki [1] [nM]	activity as dual antagonists of both A2A and A1 receptors [1]	Ki [2] [nM]
N#Cc1cc(-c2nc(N)nc3c2cnn3Cc2c(F)cc(N)cc2F)ccn1 [Compound 226, 4-(6-amino-1-(4-amino-2,6-difluorobenzyl)-1H-pyrazolo[3,4-d]pyrimidine-4-yl)picolinonitrile]	1000 to 5000		> 10000
N#Cc1cc(-c2nc(N)nc3c2cnn3Cc2ccc(N)cc2)ccn1 [Compound 218, 4-(6-amino-1-(4-aminobenzyl)-1H-pyrazolo[3,4-d]pyrimidine-4-yl)picolinonitrile]	1000 to 5000		1000 to 10000
N#Cc1cc(-c2nc(N)nc3c2cnn3Cc2c(F)cccc2F)ccn1 [Compound 234, 4-[6-amino-1-[(2,6-difluorophenyl)methyl]pyrazolo[3,4-d]pyrimidine-4-yl]pyridine-2-carbonitrile]	200 to 1000		1000 to 10000
CCn1c(=O)c2c(nc(/C=C/c3ccc(OC)c(OC)c3)n2C)n(CC)c1=O [Istradefylline, reference compound]			100 to 1000
N#Cc1ccnc(-c2nc(N)nc3c2cnn3Cc2ccc(N)c(C(F)(F)F)c2)c1 [Compound 235, 2-[6-amino-1-[[4-amino-3-(trifluoromethyl)phenyl]methyl]pyrazolo[3,4-d]pyrimidine-4-yl]pyridine-4-carbonitrile]	< 20		100 to 1000
N#Cc1cccc(-c2nc(N)nc3c2cnn3Cc2ccc(N)cc2F)c1 [Compound 209, 3-(6-amino-1-(4-amino-2-fluorobenzyl)-1H-pyrazolo[3,4-d]pyrimidine-4-yl)benzonitrile]	< 20		100 to 1000
N#Cc1cncc(-c2nc(N)nc3c2cnn3Cc2c(F)cccc2F)c1 [Compound 233, 5-(6-amino-1-(2,6-difluorobenzyl)-1H-pyrazolo[3,4-d]pyrimidine-4-yl)nicotinonitrile]	200 to 1000		1000 to 10000
N#Cc1cncc(-c2nc(N)nc3c2cnn3Cc2ccc(N)cc2F)c1 [Compound 221, 5-[6-amino-1-[(4-amino-2-fluoro-phenyl)methyl]pyrazolo[3,4-d]pyrimidine-4-yl]pyridine-3-carbonitrile]	1000 to 5000		> 10000
Cc1cc(Cn2ncc3c(-c4ccnc(C#N)c4)nc(N)nc32)ccc1N [Compound 230, 4-(6-amino-1-(4-amino-3-methylbenzyl)-1H-pyrazolo[3,4-d]pyrimidine-4-yl)picolinonitrile]	1000 to 5000		> 10000
N#Cc1ccnc(-c2nc(N)nc3c2cnn3Cc2c(F)cc(N)cc2F)c1 [Compound 224, 2-[6-amino-1-[(4-amino-2,6-difluoro-phenyl)methyl]pyrazolo[3,4-d]pyrimidine-4-yl]pyridine-4-carbonitrile]	20 to 200		100 to 1000
Cc1cc(Cn2ncc3c(-c4cncc(C#N)c4)nc(N)nc32)ccc1N [Compound 229, 5-(6-amino-1-(4-amino-3-methylbenzyl)-1H-pyrazolo[3,4-d]pyrimidine-4-yl)nicotinonitrile]	1000 to 5000		> 10000
Cc1cc(Cn2ncc3c(-c4cccc(C#N)n4)nc(N)nc32)ccc1N [Compound 227, 6-(6-amino-1-(4-amino-3-methylbenzyl)-1H-pyrazolo[3,4-d]pyrimidine-4-yl)picolinonitrile]	< 20		100 to 1000
N#Cc1cncc(-c2nc(N)nc3c2cnn3Cc2ccc(N)cc2)c1 [Compound 217, 5-(6-amino-1-(4-aminobenzyl)-1H-pyrazolo[3,4-d]pyrimidine-4-yl)nicotinonitrile]	1000 to 5000		> 10000
N#Cc1cncc(-c2nc(N)nc3c2cnn3Cc2c(F)cc(N)cc2F)c1 [Compound 225, 5-[6-amino-1-[(4-amino-2,6-difluoro-phenyl)methyl]pyrazolo[3,4-d]pyrimidine-4-yl]pyridine-3-carbonitrile]	1000 to 5000		1000 to 10000
N#Cc1ccnc(-c2nc(N)nc3c2cnn3Cc2ccc(N)cc2)c1 [Compound 216, 2-(6-amino-1-(4-aminobenzyl)-1H-pyrazolo[3,4-d]pyrimidine-4-yl)isonicotinonitrile]	200 to 1000		1000 to 10000
N#Cc1cccc(-c2nc(N)nc3c2cnn3Cc2ccc(N)cc2)n1 [Compound 215, 6-(6-amino-1-(4-aminobenzyl)-1H-pyrazolo[3,4-d]pyrimidine-4-yl)picolinonitrile]	20 to 200		100 to 1000
Cc1cc(Cn2ncc3c(-c4cc(C#N)ccn4)nc(N)nc32)ccc1N [Compound 228, 2-(6-amino-1-(4-amino-3-methylbenzyl)-1H-pyrazolo[3,4-d]pyrimidine-4-yl)isonicotinonitrile]	20 to 200		100 to 1000
Cc1cc(Cn2ncc3c(-c4cccc(C#N)c4)nc(N)nc32)ccc1N [Compound 204, 3-(6-amino-1-(4-amino-3-methylbenzyl)-1H-pyrazolo[3,4-d]pyrimidine-4-yl)benzonitrile]	< 20		100 to 1000

Other lines, results leading:

Ki [1] [nM]	activity as dual antagonists of both A2A and A1 receptors [1]	Ki [2] [nM]	Structure (SMILES)
< 20	potent activity as dual antagonists	≤ 100	N#Cc1cccc(-c2nc(N)nc3c2cnn3Cc2c(F)cc(N)cc2F)c1 [Compound 207, 3-(6-amino-1-(4-amino-2,6-difluorobenzyl)-1H-pyrazolo[3,4-d]pyrimidine-4-yl)benzonitrile]
< 20	potent activity as dual antagonists	≤ 100	N#Cc1cccc(-c2nc(N)nc3c2cnn3Cc2ccc(N)c(C(F)(F)F)c2)c1F [Compound 211, 3-(6-amino-1-(4-amino-3-(trifluoromethyl)benzyl)-1H-pyrazolo[3,4-d]pyrimidine-4-yl)-2-fluorobenzonitrile]
< 20		100 to 1000	N#Cc1cccc(-c2nc(N)nc3c2cnn3Cc2c(F)cccc2F)n1 [Compound 231, 6-(6-amino-1-(2,6-difluorobenzyl)-1H-pyrazolo[3,4-d]pyrimidine-4-yl)picolinonitrile]
< 20		100 to 1000	N#Cc1cccc(-c2nc(N)nc3c2cnn3Cc2c(F)cc(N)cc2F)n1 [Compound 223, 6-[6-amino-1-[(4-amino-2,6-difluoro-phenyl)methyl]pyrazolo[3,4-d]pyrimidine-4-yl]pyridine-2-carbonitrile]
20 to 200		100 to 1000	N#Cc1ccnc(-c2nc(N)nc3c2cnn3Cc2c(F)cccc2F)c1 [Compound 232, 2-(6-amino-1-(2,6-difluorobenzyl)-1H-pyrazolo[3,4-d]pyrimidine-4-yl)isonicotinonitrile]
< 20	potent activity as dual antagonists	≤ 100	N#Cc1cccc(-c2nc(N)nc3c2cnn3Cc2ccc(N)cc2F)c1F [Compound 203, 3-(6-amino-1-(4-amino-2-fluorobenzyl)-1H-pyrazolo[3,4-d]pyrimidine-4-yl)-2-fluorobenzonitrile]
< 20	potent activity as dual antagonists	≤ 100	N#Cc1cccc(-c2nc(N)nc3c2cnn3Cc2c(F)cccc2F)c1F [Compound 213, 3-(6-amino-1-(2,6-difluorobenzyl)-1H-pyrazolo[3,4-d]pyrimidine-4-yl)-2-fluorobenzonitrile]
< 20	potent activity as dual antagonists	≤ 100	Cc1cc(Cn2ncc3c(-c4cccc(C#N)c4F)nc(N)nc32)ccc1N [Compound 206, 3-(6-amino-1-(4-amino-3-methylbenzyl)-1H-pyrazolo[3,4-d]pyrimidine-4-yl)-2-fluorobenzonitrile]
